# Source: patent publication US10323022B2, “Pyrrolidinyl urea, pyrrolidinyl thiourea and pyrrolidinyl guanidine compounds as TrkA kinase inhibitors” (Array BioPharma Inc., priority 2011, dated 2019)
# Molecular target: TrkA (Homo sapiens (Human), UniProt P04629)
# Test: TrkA Omnia Assay
# Format: biochemical
# Conditions: averaged IC50; 20 nM enzyme, 500 μM ATP, 10 μM peptide substrate
# In short: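 Continuous fluorescent kinase read-out (ex 360 nm, em 485 nm) over 70 min, with initial rates fitted to 4- or 5-parameter logistic curves for IC50. Final conditions: 500 μM ATP, 10 μM Omnia Tyr Peptide #4, 20 nM TrkA, MOPS pH 7.5 buffer with MgCl2 and Triton X-100; enzyme and compound preincubated 10 min at ambient temperature.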
# Chain of TrkA (P04629 33-796): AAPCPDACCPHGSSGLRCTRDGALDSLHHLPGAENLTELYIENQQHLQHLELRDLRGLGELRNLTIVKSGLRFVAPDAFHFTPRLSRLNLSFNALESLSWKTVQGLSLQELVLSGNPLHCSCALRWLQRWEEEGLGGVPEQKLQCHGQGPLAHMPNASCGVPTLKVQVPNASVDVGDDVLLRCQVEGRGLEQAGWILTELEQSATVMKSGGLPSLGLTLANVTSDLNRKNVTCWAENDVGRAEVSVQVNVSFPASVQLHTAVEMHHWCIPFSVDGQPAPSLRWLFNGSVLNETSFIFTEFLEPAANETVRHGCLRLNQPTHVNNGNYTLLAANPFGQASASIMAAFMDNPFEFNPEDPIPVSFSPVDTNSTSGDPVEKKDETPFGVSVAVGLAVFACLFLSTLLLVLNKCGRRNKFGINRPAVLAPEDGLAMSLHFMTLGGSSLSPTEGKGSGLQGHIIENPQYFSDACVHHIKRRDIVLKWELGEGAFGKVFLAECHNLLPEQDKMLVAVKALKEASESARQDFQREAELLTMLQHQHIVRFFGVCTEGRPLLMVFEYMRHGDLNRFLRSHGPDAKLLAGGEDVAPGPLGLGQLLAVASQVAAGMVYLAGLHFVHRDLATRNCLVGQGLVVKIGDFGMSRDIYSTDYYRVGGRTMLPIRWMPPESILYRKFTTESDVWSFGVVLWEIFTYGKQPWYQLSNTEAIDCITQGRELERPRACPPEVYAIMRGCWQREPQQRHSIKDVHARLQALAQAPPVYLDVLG
row,IC50 [µM],SMILES
1,< 0.1,"COCCN1C[C@@H](NC(=O)Nc2c(C)c(=O)[nH]n2-c2ccccc2)[C@H](c2ccc(F)c(Cl)c2)C1 (relative stereo) [Example 610, 1-((trans)-4-(3-chloro-4-fluorophenyl)-1-(2-methoxyethyl)pyrrolidin-3-yl)-3-(4-methyl-5-oxo-2-phenyl-2,5-dihydro-1H-pyrazol-3-yl)urea]"
2,< 0.1,"COCCN1C[C@@H](NC(=O)Nc2c(C)c(=O)[nH]n2-c2ccccc2)[C@H](c2cc(F)cc(Cl)c2)C1 (relative stereo) [Example 614, 1-((trans)-4-(3-chloro-5-fluorophenyl)-1-(2-methoxyethyl)pyrrolidin-3-yl)-3-(4-methyl-5-oxo-2-phenyl-2,5-dihydro-1H-pyrazol-3-yl)urea]"
3,< 0.1,"COCCN1C[C@@H](NC(=O)Nc2c(C(N)=O)c(C)nn2-c2ccccc2)[C@H](c2ccc(F)c(Cl)c2)C1 (relative stereo) [Example 623, 5-(3-((trans)-4-(3-chloro-4-fluorophenyl)-1-(2-methoxyethyl)pyrrolidin-3-yl)ureido)-3-methyl-1-phenyl-1H-pyrazole-4-carboxamide]"
4,< 0.1,"COCCN1C[C@@H](NC(=O)Nc2c(C(N)=O)c(C)nn2-c2ccccc2)[C@H](c2ccc(Cl)c(F)c2)C1 (relative stereo) [Example 624, 5-(3-((trans)-4-(4-chloro-3-fluorophenyl)-1-(2-methoxyethyl)pyrrolidin-3-yl)ureido)-3-methyl-1-phenyl-1H-pyrazole-4-carboxamide]"
5,< 0.1,"COCCN1C[C@@H](NC(=O)Nc2c(C(N)=O)c(C)nn2-c2ccccc2)[C@H](c2cc(F)cc(Cl)c2)C1 (relative stereo) [Example 625, 5-(3-((trans)-4-(3-chloro-5-fluorophenyl)-1-(2-methoxyethyl)pyrrolidin-3-yl)ureido)-3-methyl-1-phenyl-1H-pyrazole-4-carboxamide]"
6,1 to 10,"COCCN1C[C@@H](NC(=O)Nc2c3c(nn2-c2ccccc2)CCC3)[C@H](c2nccs2)C1 (stereo in doubt) [Example 49, 1-(1-(2-methoxyethyl)-4-(thiazol-2-yl)pyrrolidin-3-yl)-3-(2-phenyl-2,4,5,6-tetrahydrocyclopenta[c]pyrazol-3-yl)urea]"
7,< 0.1,"COCC(C(=O)OC)N1CC(NC(=O)Nc2c3c(nn2-c2ccccc2)CCC3)[C@H](c2ccccc2)C1 (stereo in doubt) [Example 258, methyl 3-methoxy-2-((trans)-3-phenyl-4-(3-(2-phenyl-2,4,5,6-tetrahydrocyclopenta[c]pyrazol-3-yl)ureido)pyrrolidin-1-yl)propanoate]"
8,< 0.1,"COCCN1C[C@@H](NC(=O)Nc2cc(C(C)(C)C)nn2-c2ccccc2)[C@H](c2ccccc2)C1 [Example 1, 1-(3-tert-butyl-1-phenyl-H-pyrazol-5-yl)-3-(trans-1-(2-methoxyethyl)-4-phenylpyrrolidin-3-yl)urea]"
9,1 to 10,"COCCN1C[C@@H](NC(=O)Nc2cc(C(C)(C)C)nn2C2CCOCC2)[C@H](c2ccccc2)C1 [Example 34, 1-(3-tert-butyl-1-(tetrahyro-2H-pyran-4-yl)-1H-pyrazol-5-yl)-3-(trans-1-(2-methoxyethyl)-4-phenylpyrrolidin-3-yl)urea]"
10,< 0.1,"COCCN1C[C@@H](NC(=O)Nc2c3c(nn2-c2ccccc2)C(C)(C)CC3)[C@H](c2ccccc2)C1 [Example 36, 1-(6,6-dimethyl-2-phenyl-2,4,5,6-tetrahydro-yclopenta [c]pyrazol-3-yl)-3-(trans-1-(2-methoxyethyl)-4-phenyl-pyrrolidin-3-yl)urea]"
11,1 to 10,"COCCN1CC(c2sc(C)nc2C)[C@H](NC(=O)Nc2c3c(nn2-c2ccccc2)CCC3)C1 (stereo partly drawn) [Example 45, 1-((3,4-trans)-4-(2,4-dimethylthiazol-5-yl)-1-(2-methoxyethyl)pyrrolidin-3-yl)-3-(2-phenyl-2,4,5,6-tetrahydrocyclopenta[c]pyrazol-3-yl)urea]"
12,0.1 to 1,"COCCN1CC(NC(=O)Nc2c3c(nn2-c2ccccc2)CCC3)[C@H](c2cccc(OC)c2)C1 (stereo partly drawn) [Example 48, 1-((3,4-trans)-1-(2-methoxyethyl)-4-(3-methoxyphenyl)pyrrolidin-3-yl)-3-(2-phenyl-2,4,5,6-tetrahydrocyclopenta[c]pyrazol-3-yl)urea]"
13,< 0.1,"COCCN1C[C@@H](NC(=O)Nc2cc(C(F)(F)F)nn2-c2ccccc2)[C@H](c2ccccc2)C1 [Example 53, 1-((3S,4R)-1-(2-methoxyethyl)-4-phenylpyrrolidin-3-yl)-3-(1-phenyl-3-(trifluoromethyl)-1H-pyrazol-5-yl)urea]"
14,1 to 10,"COCCN1C[C@@H](NC(=O)Nc2c(C)c(-c3ccccc3)nn2C)[C@H](c2ccccc2)C1 [Example 54, 1-(1,4-dimethyl-3-phenyl-1H-pyrazol-5-yl)-3-((3S,4R)-1-(2-methoxy-ethyl)-4-phenylpyrrolidin-3-yl)urea]"
15,0.1 to 1,"COCCN1C[C@@H](NC(=O)Nc2cc(C3CC3)nn2C)[C@H](c2cc(F)cc(F)c2)C1 [Example 55, 1-(3-cyclopropyl-1-methyl-1H-pyrazol-5-yl)-3-((3S,4R)-4-(3,5-difluorophenyl)-1-(2-methoxyethyl)pyrrolidin-3-yl)urea]"
16,< 0.1,"COCCN1C[C@@H](NC(=O)Nc2cc(-c3ccccn3)nn2C)[C@H](c2cc(F)cc(F)c2)C1 [Example 56, 1-((3S,4R)-4-(3,5-difluorophenyl)-1-(2-methoxyethyl)pyrrolidin-3-yl)-3-(1-methyl-3-(pyridin-2-yl)-1H-pyrazol-5-yl)urea]"
17,< 0.1,"COCCN1C[C@@H](NC(=O)Nc2cc(-c3cccnc3)nn2C)[C@H](c2cc(F)cc(F)c2)C1 [Example 57, 1-((3S,4R)-4-(3,5-difluorophenyl)-1-(2-methoxyethyl)pyrrolidin-3-yl)-3-(1-methyl-3-(pyridin-3-yl)-1H-pyrazol-5-yl)urea]"
18,< 0.1,"COCCN1C[C@@H](NC(=O)Nc2cc(-c3cnn(C)c3)nn2C)[C@H](c2ccc(F)c(F)c2)C1 [Example 58, 1-((3S,4R)-4-(3,4-difluorophenyl)-1-(2-methoxyethyl)pyrrolidin-3-yl)-3-(1,1′-dimethyl-1H,1′H-3,4′-bipyrazol-5-yl)urea]"
19,< 0.1,"COCCN1C[C@@H](NC(=O)Nc2cc(-c3cccc(C#N)c3)nn2C)[C@H](c2ccc(F)c(F)c2)C1 [Example 59, 1-(3-(3-cyanophenyl)-1-methyl-1H-pyrazol-5-yl)-3-((3S,4R)-4-(3,4-difluorophenyl)-1-(2-methoxyethyl)pyrrolidin-3-yl)urea]"
20,< 0.1,"COCCN1C[C@@H](NC(=O)Nc2cc(-c3ccc(C#N)cc3)nn2C)[C@H](c2ccc(F)c(F)c2)C1 [Example 60, 1-(3-(4-cyanophenyl)-1-methyl-1H-pyrazol-5-yl)-3-((3S,4R)-4-(3,4-difluorophenyl)-1-(2-methoxyethyl)pyrrolidin-3-yl)urea]"
21,< 0.1,"COCCN1C[C@@H](NC(=O)Nc2cc(-c3cccc4nccn34)nn2C)[C@H](c2ccc(F)c(F)c2)C1 [Example 61, 1-((3S,4R)-4-(3,4-difluorophenyl)-1-(2-methoxyethyl)pyrrolidin-3-yl)-3-(3-(imidazo[1,2-a]pyridin-5-yl)-1-methyl-1H-pyrazol-5-yl)urea]"
